Source: publication PMC6412895, “Synthesis, Characterization, and Biological Activity of a Novel Series of Benzo[4,5]imidazo[2,1-b]thiazole Derivatives as Potential Epidermal Growth Factor Receptor Inhibitors” (Molecules, 2019)
pIC50: −log10 of the molar value.

Tests used:
HeLa cells = assay: MTT anti-proliferative assay, HeLa; type: cell-based, human; conditions: 24 h incubation, EGFR high-expressed cell line
Method: (§1) The inhibitory activities of all target compounds against the cervical cancer cell line HeLa, human liver cancer cell line HepG2, human liver cell line HL7702, and human umbilical vein endothelial cell line HUVEC were determined by the 3-(4,5-dimethylthiazol-2-yl)-2,5-diphenyltetrazolium bromide (MTT) assay. As known, the EGFR level of the HeLa cells was highly expressed, while that of the HepG2 cells was low, and the HL7702 cells and HUVEC cells were human normal cells.
(§2) The human cancer cell lines (HeLa and HepG2) and the human normal ones (HL7702 and HUVEC) were chosen to evaluate the antitumor activity and cell toxicity of target compounds in vitro by the MTT assay. HeLa, HepG2, and HUVEC cells were cultured in a Dulbecco’s modified Eagle’s medium (DMEM) supplemented with 10% fetal bovine serum, and HL7702 cells were cultured in a DMEM supplemented with 10% fetal bovine serum. Cells were grown to 80–90% confluence and subjected to no more than 20 cell passages and were left to acclimatize for 24 h before any treatments. The cells were seeded into 96-well plates (8 * 10^4 cells/mL) and incubated at 37 °C in a humidified atmosphere containing 5% CO2 overnight. After 24 h, the cancer cells were treated with the target compounds at 100, 50, 25, 12.5, 6.25, 3.13, and 1.56 μmol/L; the human normal cells HL7702 were treated with 200 and 100 μmol/L of the target ones; and the HUVEC were treated with 100 and 50 μmol/L of the target compounds. After 24 h of incubation, MTT (5 mg/mL) was subsequently added and incubated for 4 h. Next, the culture medium was cleared, and the crystals were dissolved in DMSO. The optical densities (OD) at 490 nm were measured on a universal microplate reader (Bio-Tek instruments, Inc., EL × 800). Inhibitory effects were expressed as the percentage of IC50 value.

HepG2 cells = assay: MTT anti-proliferative assay, HepG2; type: cell-based, human; conditions: EGFR low-expressed cell line
Method: as §1, §2

HL7702 cells = assay: MTT cell toxicity assay, HL7702 normal liver cells; type: cell-based; conditions: human normal liver cell line
Method: as §1, §2

HUVEC cells = assay: MTT cell toxicity assay, HUVEC; type: cell-based; conditions: 24 h incubation, human normal cells
Method: as §1, §2

EGFR kinase = EGFR kinase (Homo sapiens, UniProt P00533); assay: EGFR kinase assay (Kinase-Glo Plus luminescence); type: biochemical; conditions: 10 µM ATP, 30 °C, 40 minutes
EGFR kinase, sequence (P00533 669-1210 limits assumed): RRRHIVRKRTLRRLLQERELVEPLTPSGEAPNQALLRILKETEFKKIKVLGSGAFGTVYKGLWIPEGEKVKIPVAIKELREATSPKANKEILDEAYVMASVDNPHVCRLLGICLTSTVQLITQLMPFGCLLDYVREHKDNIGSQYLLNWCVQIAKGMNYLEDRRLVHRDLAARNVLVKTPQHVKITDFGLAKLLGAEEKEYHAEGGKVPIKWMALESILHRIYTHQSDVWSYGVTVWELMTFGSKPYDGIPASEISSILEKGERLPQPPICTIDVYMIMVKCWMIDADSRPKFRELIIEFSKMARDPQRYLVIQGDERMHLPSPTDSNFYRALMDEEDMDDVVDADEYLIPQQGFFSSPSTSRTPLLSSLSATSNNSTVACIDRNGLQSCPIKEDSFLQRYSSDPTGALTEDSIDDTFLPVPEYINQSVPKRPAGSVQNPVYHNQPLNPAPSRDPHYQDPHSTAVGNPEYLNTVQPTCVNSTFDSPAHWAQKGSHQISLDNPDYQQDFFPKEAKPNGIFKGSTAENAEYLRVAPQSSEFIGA
Method: The EGFR kinase assays of the target compounds were performed by the intrinsic ATPase activity luminescence assay. All the enzymatic reactions were conducted at 30 °C for 40 minutes. The 50 µL reaction mixture contained 40 mM Tris, pH 7.4, 10 mM MgCl2, 0.1 mg/mL BSA, 1 mM DTT, 10 µM adenosine triphosphate (ATP), 0.2 ug/mL PI3 Kinase, and 100 µM lipid substrate. The compounds were diluted in 10% DMSO and 5 µL of the dilution was added to a 50 µL reaction so that the final concentration of DMSO was 1% in all the reactions. The assay was performed using the Kinase-Glo Plus luminescence kinase assay kit, which measures the kinase activity by quantifying the amount of ATP remaining in solution following a kinase reaction. The luminescent signal from the assay was correlated with the amount of ATP present and was inversely correlated with the amount of kinase activity. The IC50 values were calculated using nonlinear regression with a normalized dose−response fit using the Prism GraphPad software (version 6.0, GraphPad Software, San Diego, CA, USA).

[1] = Homo sapiens, HepG2, 24 h incubation

Compound	pIC50 (HeLa cells)	pIC50 (HepG2 cells; 24 h incubation)	pIC50 (HeLa cells; Homo sapiens, HeLa)	pIC50 (HepG2 cells; [1])	melting point [°C]	pIC50 (EGFR kinase)	pIC50 (HL7702 cells; 24 h incubation)	pIC50 (HUVEC cells)	pIC50 (HL7702 cells; L02, 24 h incubation)	pIC50 (HUVEC cells; HUVEC)
2-(Benzo[4,5]imidazo[2,1-b]thiazol-3-yl)-N-(4-(benzyloxy)phenyl)acetamide [Compound D12]	< 4.00	< 4.00	–	–	–	–	< 3.70	< 4.00	–	–
2-(Benzo[4,5]imidazo[2,1-b]thiazol-3-yl)-N-(4-(trifluoromethyl)phenyl)acetamide [Compound D18]	4.36	–	–	–	–	–	–	–	–	–
O=C(Cc1csc2nc3ccccc3n12)Nc1cccc([N+](=O)[O-])c1 [Compound D06, 2-(Benzo[4,5]imidazo[2,1-b]thiazol-3-yl)-N-(3-nitrophenyl)acetamide]	–	–	< 4.00	< 4.00	132 to 134	–	–	–	< 3.70	< 4.00
O=C(Cc1csc2nc3ccccc3n12)Nc1ccc([N+](=O)[O-])cc1 [Compound D07, 2-(Benzo[4,5]imidazo[2,1-b]thiazol-3-yl)-N-(4-nitrophenyl)acetamide]	–	–	< 4.00	< 4.00	99 to 101	–	–	–	< 3.70	< 4.00
O=C(Cc1csc2nc3ccccc3n12)Nc1ccc(Cl)c(C(F)(F)F)c1 [Compound D10, 2-(Benzo[4,5]imidazo[2,1-b]thiazol-3-yl)-N-(4-chloro-3-(trifluoromethyl)phenyl)acetamide]	–	–	< 4.00	< 4.00	153 to 155	–	–	–	< 3.70	< 4.00
O=C(Cc1csc2nc3ccccc3n12)Nc1ccc(Br)c(F)c1 [Compound D11, 2-(Benzo[4,5]imidazo[2,1-b]thiazol-3-yl)-N-(4-bromo-3-fluorophenyl)acetamide]	–	–	< 4.00	< 4.00	151 to 153	–	–	–	< 3.70	< 4.00
O=C(Cc1csc2nc3ccccc3n12)Nc1ccc(F)c(Br)c1 [Compound D13, 2-(Benzo[4,5]imidazo[2,1-b]thiazol-3-yl)-N-(3-bromo-4-fluorophenyl)acetamide]	–	–	< 4.00	< 4.00	218 to 220	–	–	–	< 3.70	< 4.00
O=C(Cc1csc2nc3ccccc3n12)Nc1ccc(Br)cc1 [Compound D14, 2-(Benzo[4,5]imidazo[2,1-b]thiazol-3-yl)-N-(4-bromophenyl)acetamide]	–	–	< 4.00	< 4.00	107 to 109	–	–	–	< 3.70	< 4.00
Cc1ccccc1NC(=O)Cc1csc2nc3ccccc3n12 [Compound D15, 2-(Benzo[4,5]imidazo[2,1-b]thiazol-3-yl)-N-(2-methylphenyl)acetamide]	–	–	< 4.00	< 4.00	83 to 85	–	–	–	< 3.70	< 4.00
O=C(Cc1csc2nc3ccccc3n12)Nc1ccc(Cl)cc1Cl [Compound D17, 2-(Benzo[4,5]imidazo[2,1-b]thiazol-3-yl)-N-(2,4-dichlorophenyl)acetamide]	–	–	< 4.00	< 4.00	206 to 208	–	–	–	< 3.70	< 4.00

More lines, main results first:

pIC50 (HeLa cells)	pIC50 (HepG2 cells; 24 h incubation)	pIC50 (HeLa cells; Homo sapiens, HeLa)	pIC50 (HepG2 cells; [1])	melting point [°C]	pIC50 (EGFR kinase)	Compound	pIC50 (HL7702 cells; 24 h incubation)	pIC50 (HUVEC cells)	pIC50 (HL7702 cells; L02, 24 h incubation)	pIC50 (HUVEC cells; HUVEC)
–	–	< 4.00	< 4.00	123 to 125	–	O=C(Cc1csc2nc3ccccc3n12)Nc1ccccc1 [Compound D01, 2-(Benzo[4,5]imidazo[2,1-b]thiazol-3-yl)-N-phenylacetamide]	–	–	< 3.70	< 4.00
–	–	< 4.00	< 4.00	101 to 103	–	O=C(Cc1csc2nc3ccccc3n12)Nc1ccc(O)cc1 [Compound D02, 2-(Benzo[4,5]imidazo[2,1-b]thiazol-3-yl)-N-(4-hydroxyphenyl)acetamide]	–	–	< 3.70	< 4.00
–	–	< 4.00	< 4.00	111 to 113	–	O=C(Cc1csc2nc3ccccc3n12)Nc1cccc(O)c1 [Compound D03, 2-(Benzo[4,5]imidazo[2,1-b]thiazol-3-yl)-N-(3-hydroxyphenyl)acetamide]	–	–	< 3.70	< 4.00
–	–	6.38	< 4.00	121 to 123	7.26	O=C(Cc1csc2nc3ccccc3n12)Nc1ccccc1O [Compound D04, 2-(Benzo[4,5]imidazo[2,1-b]thiazol-3-yl)-N-(2-hydroxyphenyl)acetamide]	–	–	< 3.70	< 4.00
–	–	< 4.00	< 4.00	196 to 198	–	C=CCOc1ccc(NC(=O)Cc2csc3nc4ccccc4n23)cc1 [Compound D05, N-(4-(Allyloxy)phenyl)-2-(benzo[4,5]imidazo[2,1-b]thiazol-3-yl)acetamide]	–	–	< 3.70	< 4.00
–	–	5.60	< 4.00	136 to 138	7.05	O=C(Cc1csc2nc3ccccc3n12)Nc1cccc2ccccc12 [Compound D08, 2-(Benzo[4,5]imidazo[2,1-b]thiazol-3-yl)-N-(naphthalen-1-yl)acetamide]	–	–	< 3.70	< 4.00
–	–	4.85	< 4.00	151 to 153	7.00	O=C(Cc1csc2nc3ccccc3n12)Nc1ccc(Cl)cc1 [Compound D09, 2-(Benzo[4,5]imidazo[2,1-b]thiazol-3-yl)-N-(4-chlorophenyl)acetamide]	–	–	< 3.70	< 4.00
–	–	4.49	< 4.00	101 to 103	–	O=C(Cc1csc2nc3ccccc3n12)Nc1cc(F)cc(F)c1 [Compound D16, 2-(Benzo[4,5]imidazo[2,1-b]thiazol-3-yl)-N-(3,5-difluorophenyl)acetamide]	–	–	< 3.70	< 4.00
